Assay results taken from the supplement of paper PMC8149375.

Tests used:
Details in all cases: treatment: drug + dasatinib (fixed dose, not stated); 5 days
769-P [1] = assay: GI50 of drug in presence of dasatinib; higher = less potent
Protocol: (§1)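 Primary HTS combination arm: 8 RCC cell lines treated with 8 doses (up to 10 uM) of each library drug plus a fixed dose of dasatinib (dose not stated) for 5 days; viability read by CellTiter-Glo and normalised to DMSO. GI50 was fitted with XLfit, AUC is the area under the dose-response curve, and minimum viability is the lowest fraction of DMSO viability across doses.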

786-O [2] = assay: as above
Protocol: as §1

A498 [3] = assay: as above
Protocol: as §1

ACHN [4] = assay: as above
Protocol: as §1

CAKI-1 [5] = assay: as above
Protocol: as §1

SN12C [6] = assay: as above
Protocol: as §1

TK-10 [7] = assay: as above
Protocol: as §1

UO-31 [8] = assay: as above
Protocol: as §1

769-P [9] = assay: minimum viability across doses, drug + dasatinib, relative to DMSO (fraction); higher = less growth inhibition
Protocol: as §1

786-O [10] = assay: as above
Protocol: as §1

A498 [11] = assay: as above
Protocol: as §1

ACHN [12] = assay: as above
Protocol: as §1

CAKI-1 [13] = assay: as above
Protocol: as §1

SN12C [14] = assay: as above
Protocol: as §1

TK-10 [15] = assay: as above
Protocol: as §1

UO-31 [16] = assay: as above
Protocol: as §1

769-P [17] = assay: AUC of dose-response viability curve, drug + dasatinib, normalised to DMSO (arbitrary (AUC of normalised viability)); higher = less growth inhibition
Protocol: as §1

786-O [18] = assay: as above
Protocol: as §1

A498 [19] = assay: as above
Protocol: as §1

ACHN [20] = assay: as above
Protocol: as §1

CAKI-1 [21] = assay: as above
Protocol: as §1

SN12C [22] = assay: as above
Protocol: as §1

TK-10 [23] = assay: as above
Protocol: as §1

UO-31 [24] = assay: as above
Protocol: as §1

Structure (SMILES)	GI50 of drug (786-O [2]) [nM]	GI50 of drug (ACHN [4]) [nM]	GI50 of drug (769-P [1]) [nM]	GI50 of drug (A498 [3]) [nM]	GI50 of drug (CAKI-1 [5]) [nM]	GI50 of drug (SN12C [6]) [nM]	GI50 of drug (TK-10 [7]) [nM]	GI50 of drug (UO-31 [8]) [nM]	minimum viability across doses (769-P [9])	minimum viability across doses (786-O [10])	minimum viability across doses (A498 [11])	minimum viability across doses (ACHN [12])	minimum viability across doses (CAKI-1 [13])	minimum viability across doses (SN12C [14])	minimum viability across doses (TK-10 [15])	minimum viability across doses (UO-31 [16])	AUC of dose-response viability curve (769-P [17])	AUC of dose-response viability curve (786-O [18])	AUC of dose-response viability curve (A498 [19])	AUC of dose-response viability curve (ACHN [20])	AUC of dose-response viability curve (CAKI-1 [21])	AUC of dose-response viability curve (SN12C [22])	AUC of dose-response viability curve (TK-10 [23])	AUC of dose-response viability curve (UO-31 [24])
COc1cc2ncnc(Nc3ccc(F)c(Cl)c3)c2cc1NC(=O)/C=C/CN1CCCCC1 + Cc1nc(Nc2ncc(C(=O)Nc3c(C)cccc3Cl)s2)cc(N2CCN(CCO)CC2)n1 [dasatinib]	< 3	< 3	25.5	2350	485	567	53.6	1160	0.00783	0.0063	0.0146	0.00207	0.00568	0.00664	0.00803	0.0145	1.25	1.02	2.74	0.908	1.63	1.81	1.46	2.31
O=C1NC(=O)/C(=C/c2ccc3nccc(-c4ccncc4)c3c2)S1 + Cc1nc(Nc2ncc(C(=O)Nc3c(C)cccc3Cl)s2)cc(N2CCN(CCO)CC2)n1 [dasatinib]	136	101	294	383	75	304	930	500	0.261	0.00524	0.138	0.108	0.0502	0.243	0.318	0.0612	1.8	1.53	2.01	1.45	1.29	1.76	2.17	2.17
COCC(=O)NC/C=C/c1ccc2ncnc(Nc3ccc(Oc4ccc(C)nc4)c(C)c3)c2c1 + Cc1nc(Nc2ncc(C(=O)Nc3c(C)cccc3Cl)s2)cc(N2CCN(CCO)CC2)n1 [dasatinib]	9120	3030	2130	> 10000	6790	> 10000	3970	> 10000	0.253	0.479	0.925	0.386	0.492	0.632	0.406	0.653	2.18	2.46	3.67	1.88	2.26	2.48	2.41	3.68
CCc1cc(Nc2nccc(-c3c(-c4ccc(OC)c(C(=O)Nc5c(F)cccc5F)c4)nc4ccccn34)n2)c(OC)cc1N1CCC(N2CCN(S(C)(=O)=O)CC2)CC1 + Cc1nc(Nc2ncc(C(=O)Nc3c(C)cccc3Cl)s2)cc(N2CCN(CCO)CC2)n1 [dasatinib]	> 10000	> 10000	3100	> 10000	3060	> 10000	> 10000	> 10000	0.445	0.641	0.849	0.488	0.406	0.644	0.678	0.86	2.19	2.71	3.42	1.97	2.19	2.4	2.59	3.28
C#Cc1cccc(Nc2ncnc3cc(OCCOC)c(OCCO)cc23)c1 + Cc1nc(Nc2ncc(C(=O)Nc3c(C)cccc3Cl)s2)cc(N2CCN(CCO)CC2)n1 [dasatinib]	> 10000	3.94	760	> 10000	1010	> 10000	1300	9830	0.301	0.489	0.973	0.108	0.125	0.415	0.323	0.439	2.11	2.72	3.63	1.13	2.09	2.43	2.1	4.6
CC1(COc2ccc3c(c2)ncn3-c2ccc3cccc(N4CCC(N)CC4)c3n2)COC1 + Cc1nc(Nc2ncc(C(=O)Nc3c(C)cccc3Cl)s2)cc(N2CCN(CCO)CC2)n1 [dasatinib]	102	1920	1710	2540	928	1280	3330	2230	0.222	0.00575	0.0198	0.0128	0.192	0.0349	0.181	0.0108	1.8	1.64	2.83	1.96	1.9	2.14	2.42	2.77
Cn1cc(C2=C(c3cn(C4CCN(Cc5ccccn5)CC4)c4ccccc34)C(=O)NC2=O)c2ccccc21 + Cc1nc(Nc2ncc(C(=O)Nc3c(C)cccc3Cl)s2)cc(N2CCN(CCO)CC2)n1 [dasatinib]	> 10000	> 10000	> 10000	> 10000	> 10000	> 10000	> 10000	6320	0.571	0.636	0.817	0.566	0.585	0.62	0.667	0.341	2.27	2.71	3.04	2.28	2.2	2.38	2.85	3.35
CCn1cc(-c2ccnc3[nH]c(-c4cccc(CN(C)C)c4)cc23)c(-c2ccc(NC(=O)N(C)C)cc2)n1 + Cc1nc(Nc2ncc(C(=O)Nc3c(C)cccc3Cl)s2)cc(N2CCN(CCO)CC2)n1 [dasatinib]	28.4	73.7	785	2170	96.9	128	635	2870	0.0742	0.0106	0.131	0.00393	0.0134	0.00824	0.0524	0.0175	2.05	1.39	2.97	1.33	1.42	1.61	2.03	3.82
Cc1nc(Nc2ncc(C(=O)Nc3c(C)cccc3Cl)s2)cc(N2CCN(CCO)CC2)n1 + Cc1nc(Nc2ncc(C(=O)Nc3c(C)cccc3Cl)s2)cc(N2CCN(CCO)CC2)n1 [dasatinib]	158	26.3	38.2	8460	23.6	2300	18.8	65.6	0.0465	0.0726	0.413	0.0702	0.0256	0.422	0.0619	0.0492	1.22	1.71	2.62	1.18	1.03	2.21	1.04	1.44
CNC(=O)c1c(F)cccc1Nc1nc(Nc2cc3c(cc2OC)CCN3C(=O)CN(C)C)nc2[nH]ccc12 + Cc1nc(Nc2ncc(C(=O)Nc3c(C)cccc3Cl)s2)cc(N2CCN(CCO)CC2)n1 [dasatinib]	686	434	1300	8320	919	1520	1660	2920	0.0146	0.00553	0.015	0.0022	0.00312	0.004	0.189	0.0173	1.96	1.84	3.85	1.62	1.87	2.11	2.17	3.45

Continued, in another order:

GI50 of drug (786-O [2]) [nM]	GI50 of drug (ACHN [4]) [nM]	Structure (SMILES)	GI50 of drug (769-P [1]) [nM]	GI50 of drug (A498 [3]) [nM]	GI50 of drug (CAKI-1 [5]) [nM]	GI50 of drug (SN12C [6]) [nM]	GI50 of drug (TK-10 [7]) [nM]	GI50 of drug (UO-31 [8]) [nM]	minimum viability across doses (769-P [9])	minimum viability across doses (786-O [10])	minimum viability across doses (A498 [11])	minimum viability across doses (ACHN [12])	minimum viability across doses (CAKI-1 [13])	minimum viability across doses (SN12C [14])	minimum viability across doses (TK-10 [15])	minimum viability across doses (UO-31 [16])	AUC of dose-response viability curve (769-P [17])	AUC of dose-response viability curve (786-O [18])	AUC of dose-response viability curve (A498 [19])	AUC of dose-response viability curve (ACHN [20])	AUC of dose-response viability curve (CAKI-1 [21])	AUC of dose-response viability curve (SN12C [22])	AUC of dose-response viability curve (TK-10 [23])	AUC of dose-response viability curve (UO-31 [24])
798	475	C[C@@H](Oc1cc(-c2cnn(C3CCNCC3)c2)cnc1N)c1c(Cl)ccc(F)c1Cl + Cc1nc(Nc2ncc(C(=O)Nc3c(C)cccc3Cl)s2)cc(N2CCN(CCO)CC2)n1 [dasatinib]	2260	3260	837	748	3550	539	0.0606	0.00845	0.284	0.0735	0.0151	0.175	0.149	0.0115	2.43	2.22	2.68	1.81	1.91	1.98	2.65	2.11
496	112	COc1cc2c(Oc3ccc(NC(=O)C4(C(=O)Nc5ccc(F)cc5)CC4)cc3F)ccnc2cc1OCCCN1CCOCC1 + Cc1nc(Nc2ncc(C(=O)Nc3c(C)cccc3Cl)s2)cc(N2CCN(CCO)CC2)n1 [dasatinib]	458	1430	135	226	558	393	0.00976	0.00858	0.0345	0.00242	0.00437	0.0105	0.00508	0.011	1.78	1.65	2.47	1.36	1.48	1.56	1.94	1.95
30.8	134	CC(C)(C)c1nc(-c2cccc(NS(=O)(=O)c3c(F)cccc3F)c2F)c(-c2ccnc(N)n2)s1 + Cc1nc(Nc2ncc(C(=O)Nc3c(C)cccc3Cl)s2)cc(N2CCN(CCO)CC2)n1 [dasatinib]	> 10000	> 10000	121	> 10000	563	> 10000	0.55	0.184	1.01	0.113	0.0739	0.684	0.3	0.58	2.36	1.49	4.08	1.51	1.48	2.61	2	3.99
3.6	3.94	CCc1cnn2c(NCc3ccc[n+]([O-])c3)cc(N3CCCC[C@H]3CCO)nc12 + Cc1nc(Nc2ncc(C(=O)Nc3c(C)cccc3Cl)s2)cc(N2CCN(CCO)CC2)n1 [dasatinib]	16.7	11.9	7.08	11.5	14.1	15.1	0.0174	0.00583	0.00891	0.00901	0.0412	0.0087	0.169	0.0088	0.787	0.357	0.592	0.506	0.562	0.562	1.11	0.771
